The molecules below were run on recombinant NL4-3 virus (Renilla luciferase in nef, Gag P373S) (assay: HIV cell culture assay (luciferase activity in MT-2 cells infected with NLRluc recombinant virus)). Conditions: NL43, MT-2 cells infected 4-5 days with NLRluc recombinant virus, class symbol.
Type: cell-based
In short: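 MT-2 cells in RPMI/10% FBS were infected with recombinant NL4-3 (NLRluc), produced by 293T transfection and titered in MT-2 by luciferase. Serial inhibitor dilutions were present throughout a 4–5 day infection. Antiviral activity was quantified as Renilla luciferase signal via a modified Dual Luciferase read.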
`C=C(C)[C@@H]1CC[C@]2(CNCCC(=O)N3CCCCC3)CC[C@]3(C)[C@H](CC[C@@H]4[C@@]5(C)CC=C(c6ccc(C(=O)O)cc6)C(C)(C)[C@@H]5CC[C@]43C)[C@@H]12` [Example 96, 4-((1R,3aS,5aR,5bR,7aR,11aS,11bR,13aR,13bR)-5a,5b,8,8,11a-pentamethyl-3a-((3-oxo-3-(piperidin-1-yl)propylamino)methyl)-1-(prop-1-en-2-yl)-2,3,3a,4,5,5a,5b,6,7,7a,8,11,11a,11b,12,13,13a,13b-octadecahydro-1H-cyclopenta[a]chrysen-9-yl)benzoic acid] was tested, and the EC50 was under 100 nM. `C=C(C)[C@@H]1CC[C@]2(CNCCC(=O)N3CC(F)(F)C(F)(F)C3)CC[C@]3(C)[C@H](CC[C@@H]4[C@@]5(C)CC=C(c6ccc(C(=O)O)cc6)C(C)(C)[C@@H]5CC[C@]43C)[C@@H]12` [Example 106, 4-((1R,3aS,5aR,5bR,7aR,11aS,11bR,13aR,13bR)-5a,5b,8,8,11a-pentamethyl-3a-((3-oxo-3-(3,3,4,4-tetrafluoropyrrolidin-1-yl)propylamino)methyl)-1-(prop-1-en-2-yl)-2,3,3a,4,5,5a,5b,6,7,7a,8,11,11a,11b,12,13,13a,13b-octadecahydro-1H-cyclopenta[a]chrysen-9-yl)benzoic acid] gave an EC50 of under 100 nM. `C=C(C)[C@@H]1CC[C@]2(CNCCC(=O)N3CCC4(CCN(C)C4=O)CC3)CC[C@]3(C)[C@H](CC[C@@H]4[C@@]5(C)CC=C(c6ccc(C(=O)O)cc6)C(C)(C)[C@@H]5CC[C@]43C)[C@@H]12` [Example 123, 4-((1R,3aS,5aR,5bR,7aR,11aS,11bR,13aR,13bR)-5a,5b,8,8,11a-pentamethyl-3a-((3-(2-methyl-1-oxo-2,8-diazaspiro[4.5]decan-8-yl)-3-oxopropylamino)methyl)-1-(prop-1-en-2-yl)-2,3,3a,4,5,5a,5b,6,7,7a,8,11,11a,11b,12,13,13a,13b-octadecahydro-1H-cyclopenta[a]chrysen-9-yl)benzoic acid] gave an EC50 of under 100 nM. For `C=C(C)[C@@H]1CC[C@]2(CNCCC(=O)O)CC[C@]3(C)[C@H](CC[C@@H]4[C@@]5(C)CC=C(c6ccc(C(=O)O)cc6)C(C)(C)[C@@H]5CC[C@]43C)[C@@H]12` [Example 64, 4-((1R,3aS,5aR,5bR,7aR,11aS,11bR,13aR,13bR)-3a-((2-carboxymethylamino)methyl)-5a,5b,8,8,11a-pentamethyl-1-(prop-1-en-2-yl)-2,3,3a,4,5,5a,5b,6,7,7a,8,11,11a,11b,12,13,13a,13b-octadecahydro-1H-cyclopenta[a]chrysen-9-yl)benzoic acid], the EC50 was under 100 nM. Work on `C=C(C)[C@@H]1CC[C@]2(CNCCC(=O)N(C)C)CC[C@]3(C)[C@H](CC[C@@H]4[C@@]5(C)CC=C(c6ccc(C(=O)O)cc6)C(C)(C)[C@@H]5CC[C@]43C)[C@@H]12` [Example 75, 4-((1R,3aS,5aR,5bR,7aR,11aS,11bR,13aR,13bR)-3a-((3-(dimethylamino)-3-oxopropylamino)methyl)-5a,5b,8,8,11a-pentamethyl-1-(prop-1-en-2-yl)-2,3,3a,4,5,5a,5b,6,7,7a,8,11,11a,11b,12,13,13a,13b-octadecahydro-1H-cyclopenta[a]chrysen-9-yl)benzoic acid] yielded an EC50 of under 100 nM. With `C=C(C)[C@@H]1CC[C@]2(CNCCC(=O)N3CCC(C(=O)O)CC3)CC[C@]3(C)[C@H](CC[C@@H]4[C@@]5(C)CC=C(c6ccc(C(=O)O)cc6)C(C)(C)[C@@H]5CC[C@]43C)[C@@H]12` [Example 104, 1-(3-(((1R,3aS,5aR,5bR,7aR,11aS,11bR,13aR,13bR)-9-(4-carboxyphenyl)-5a,5b,8,8,11a-pentamethyl-1-(prop-1-en-2-yl)-2,3,3a,4,5,5a,5b,6,7,7a,8,11,11a,11b,12,13,13a,13b-octadecahydro-1H-cyclopenta[a]chrysen-3a-yl)methylamino)propanoyl)piperidine-4-carboxylic acid] the EC50 was under 100 nM. In the case of `C=C(C)[C@@H]1CC[C@]2(CNCCN(C)C)CC[C@]3(C)[C@H](CC[C@@H]4[C@@]5(C)CC=C(c6ccc(C(=O)O)cc6)C(C)(C)[C@@H]5CC[C@]43C)[C@@H]12` [Example 1, 4-((1R,3aS,5aR,5bR,7aR,11aS,11bR,13aR,13bR)-3a-((2-(dimethylamino)ethylamino)methyl)-5a,5b,8,8,11a-pentamethyl-1-(prop-1-en-2-yl)-2,3,3a,4,5,5a,5b,6,7,7a,8,11,11a,11b,12,13,13a,13b-octadecahydro-1H-cyclopenta[a]chrysen-9-yl)benzoic acid], the EC50 is reported as under 100 nM. `C=C(C)[C@@H]1CC[C@]2(CNCCCn3ccnc3)CC[C@]3(C)[C@H](CC[C@@H]4[C@@]5(C)CC=C(c6ccc(C(=O)O)cc6)C(C)(C)[C@@H]5CC[C@]43C)[C@@H]12` [Example 55, 4-((1R,3aS,5aR,5bR,7aR,11aS,11bR,13aR,13bR)-3a-((3-(1H-imidazol-1-yl)propylamino)methyl)-5a,5b,8,8,11a-pentamethyl-1-(prop-1-en-2-yl)-2,3,3a,4,5,5a,5b,6,7,7a,8,11,11a,11b,12,13,13a,13b-octadecahydro-1H-cyclopenta[a]chrysen-9-yl)benzoic acid] was tested, and the EC50 was under 100 nM. For `C=C(C)[C@@H]1CC[C@]2(CN(CCCN3CCS(=O)(=O)CC3)C(=O)CCC(=O)O)CC[C@]3(C)[C@H](CC[C@@H]4[C@@]5(C)CC=C(c6ccc(C(=O)O)cc6)C(C)(C)[C@@H]5CC[C@]43C)[C@@H]12` [Example 16, 4-((1R,3aS,5aR,5bR,7aR,11aS,11bR,13aR,13bR)-5a,5b,8,8,11a-pentamethyl-1-(prop-1-en-2-yl)-3a-((3-(1-dioxo-thiomorpholino)propylamino)methyl)-2,3,3a,4,5,5a,5b,6,7,7a,8,11,11a,11b,12,13,13a,13b-octadecahydro-1H-cyclopenta[a]chrysen-9-yl)benzoic acid], the EC50 was under 100 nM. `C=C(C)[C@@H]1CC[C@]2(CNCCCN3CCCC3CO)CC[C@]3(C)[C@H](CC[C@@H]4[C@@]5(C)CC=C(c6ccc(C(=O)O)cc6)C(C)(C)[C@@H]5CC[C@]43C)[C@@H]12` (stereo partly drawn) [Example 74, 4-((1R,3aS,5aR,5bR,7aR,11aS,11bR,13aR,13bR)-3a-((3-(2-(hydroxymethyl)pyrrolidin-1-yl)propylamino)methyl)-5a,5b,8,8,11a-pentamethyl-1-(prop-1-en-2-yl)-2,3,3a,4,5,5a,5b,6,7,7a,8,11,11a,11b,12,13,13a,13b-octadecahydro-1H-cyclopenta[a]chrysen-9-yl)benzoic acid] was tested, and the EC50 was under 100 nM. In the case of `C=C(C)[C@@H]1CC[C@]2(CNCCCN3CCS(=O)(=O)CC3)CC[C@]3(C)[C@H](CC[C@@H]4[C@@]5(C)CC=C(c6ccc(C(=O)O)c(F)c6)C(C)(C)[C@@H]5CC[C@]43C)[C@@H]12` [Example 93, 4-((1R,3aS,5aR,5bR,7aR,11aS,11bR,13aR,13bR)-3a-(((3-(1,1-dioxido-4-thiomorpholinyl)propyl)amino)methyl)-1-isopropenyl-5a,5b,8,8,11a-pentamethyl-2,3,3a,4,5,5a,5b,6,7,7a,8,11,11a,11b,12,13,13a,13b-octadecahydro-1H-cyclopenta[a]chrysen-9-yl)-2-fluorobenzoic acid], the EC50 is reported as under 100 nM. For `C=C(C)[C@@H]1CC[C@]2(CNC(=O)CCC(=O)O)CC[C@]3(C)[C@H](CC[C@@H]4[C@@]5(C)CC=C(c6ccc(C(=O)O)cc6)C(C)(C)[C@@H]5CC[C@]43C)[C@@H]12` [Example 169, 4-((1R,3aS,5aR,5bR,7aR,11aS,11bR,13aR,13bR)-3a-((3-carboxypropanamido)methyl)-5a,5b,8,8,11a-pentamethyl-1-(prop-1-en-2-yl)-2,3,3a,4,5,5a,5b,6,7,7a,8,11,11a,11b,12,13,13a,13b-octadecahydro-1H-cyclopenta[a]chrysen-9-yl)benzoic acid], the EC50 was under 100 nM. For `C=C(C)[C@@H]1CC[C@]2(CNCCC(=O)N3CCCC3)CC[C@]3(C)[C@H](CC[C@@H]4[C@@]5(C)CC=C(c6ccc(C(=O)O)cc6F)C(C)(C)[C@@H]5CC[C@]43C)[C@@H]12` [Example 89, 3-fluoro-4-((1R,3aS,5aR,5bR,7aR,11aS,11bR,13aR,13bR)-5a,5b,8,8,11a-pentamethyl-3a-((3-oxo-3-(pyrrolidin-1-yl)propylamino)methyl)-1-(prop-1-en-2-yl)-2,3,3a,4,5,5a,5b,6,7,7a,8,11,11a,11b,12,13,13a,13b-octadecahydro-1H-cyclopenta[a]chrysen-9-yl)benzoic acid], the EC50 was under 100 nM. For `C=C(C)[C@@H]1CC[C@]2(CNCCC(=O)N3CCS(=O)(=O)CC3)CC[C@]3(C)[C@H](CC[C@@H]4[C@@]5(C)CC=C(c6ccc(C(=O)O)cc6)C(C)(C)[C@@H]5CC[C@]43C)[C@@H]12` [Example 118, 4-((1R,3aS,5aR,5bR,7aR,11aS,11bR,13aR,13bR)-3a-(((3-(1,1-dioxido-4-thiomorpholinyl)-3-oxopropyl)amino)methyl)-1-isopropenyl-5a,5b,8,8,11a-pentamethyl-2,3,3a,4,5,5a,5b,6,7,7a,8,11,11a,11b,12,13,13a,13b-octadecahydro-1H-cyclopenta[a]chrysen-9-yl)benzoic acid], the EC50 was under 100 nM.

Same assay, conditions: NL43, MT-2 cells infected 4-5 days with NLRluc recombinant virus, numeric value
In the case of `C=C(C)[C@@H]1CC[C@]2(CNCCCN(C)C)CC[C@]3(C)[C@H](CC[C@@H]4[C@@]5(C)CC=C(c6ccc(C(=O)O)cc6)C(C)(C)[C@@H]5CC[C@]43C)[C@@H]12` [Example 6, 4-((1R,3aS,5aR,5bR,7aR,11aS,11bR,13aR,13bR)-3a-((3-(dimethylamino)propylamino)methyl)-5a,5b,8,8,11a-pentamethyl-1-(prop-1-en-2-yl)-2,3,3a,4,5,5a,5b,6,7,7a,8,11,11a,11b,12,13,13a,13b-octadecahydro-1H-cyclopenta[a]chrysen-9-yl)benzoic acid], the EC50 is reported as 30 nM.
